Test results reported in ChEMBL document CHEMBL1949618, “Synthesis and properties of mRNA cap analogs containing imidodiphosphate moiety--fairly mimicking natural cap structure, yet resistant to enzymatic hydrolysis” (Bioorg Med Chem, 2012).
The source made the active and inactive calls. No cut-off for these calls is given here.

Legend:
[1] = Chemical stability of the compound in aqueous buffer at pH 8 assessed as decomposition at 5 mM up to 2 hrs by RP-HPLC; type: physicochemical; details: pH 8, 2 h, 5000 µM
[2] = Chemical stability of the compound in aqueous buffer at pH 8 assessed as decomposition at 5 mM after 24 hrs by RP-HPLC; type: physicochemical; details: read-out: Drug degradation
[3] = Chemical stability of the compound in aqueous buffer at pH 6 assessed as decomposition at 5 mM up to 2 hrs by RP-HPLC; type: physicochemical; details: pH 6, 2 h, 5000 µM
[4] = molecular target: T1, m7GpppX diphosphatase (Homo sapiens) (UniProt Q96C86)
T1 sequence (whole entry): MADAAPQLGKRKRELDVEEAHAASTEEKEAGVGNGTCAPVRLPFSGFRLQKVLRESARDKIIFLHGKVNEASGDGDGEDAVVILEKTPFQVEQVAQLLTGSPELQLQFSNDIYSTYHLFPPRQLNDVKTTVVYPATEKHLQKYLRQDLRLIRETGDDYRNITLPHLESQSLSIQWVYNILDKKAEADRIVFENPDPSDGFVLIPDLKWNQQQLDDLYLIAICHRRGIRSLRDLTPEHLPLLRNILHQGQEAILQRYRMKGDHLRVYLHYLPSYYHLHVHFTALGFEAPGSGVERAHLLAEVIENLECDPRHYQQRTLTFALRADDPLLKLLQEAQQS
Description: Binding affinity to human recombinant DcpS by fluorescence quenching titration method

[5] = molecular target: Eukaryotic translation initiation factor 4E (Homo sapiens) (UniProt P06730); experiment: Binding affinity to recombinant eIF4E by fluorescence quenching titration method
Chain of Eukaryotic translation initiation factor 4E (Homo sapiens) (P06730 whole entry): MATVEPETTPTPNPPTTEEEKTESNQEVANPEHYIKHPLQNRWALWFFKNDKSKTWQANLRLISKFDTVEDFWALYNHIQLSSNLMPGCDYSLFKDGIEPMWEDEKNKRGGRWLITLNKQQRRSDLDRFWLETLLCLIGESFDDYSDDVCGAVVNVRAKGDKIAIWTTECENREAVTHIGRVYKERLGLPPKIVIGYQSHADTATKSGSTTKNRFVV

[6] = Stability of the compound at -20 degreeC after 12 months; type: physicochemical; details: 8766 h
[7] = Chemical stability of the compound in aqueous buffer at pH 6 assessed as decomposition at 5 mM after 24 hrs by RP-HPLC; type: physicochemical; details: read-out: Drug degradation
Homo sapiens = organism: Homo sapiens; experiment: Selectivity ratio of Ka for human recombinant DcpS to Ka for eIF4E
[8] = molecular target: Eukaryotic translation initiation factor 4E (Oryctolagus cuniculus) (UniProt P29338); experiment: Inhibition of eIF4E-mediated mRNA translation in rabbit reticulocyte lysate assessed as translation efficiency after 60 mins by luciferase reporter gene assay relative to m7GpppG-capped mRNA
Chain of Eukaryotic translation initiation factor 4E (Oryctolagus cuniculus) (P29338 whole entry): as the sequence (P06730 whole entry) above, with T16P, T17A, E174D counted along it

Nucleic Acid = experiment: Capping efficiency in mRNA after 60 mins by gel electrophoresis in the presence of SP6 polymerase; type: nucleic-acid assay
[9] = (§1) Stability of the compound assessed as human recombinant DcpS -mediated hydrolysis after 90 mins by HPLC; type: ADME; details: 1.5 h
[10] = Chemical stability of the compound in aqueous buffer at pH 2 assessed as decomposition at 5 mM up to 2 hrs by RP-HPLC; type: physicochemical; details: pH 2, 2 h, 5000 µM
[11] = Chemical stability of the compound in aqueous buffer at pH 2 assessed as decomposition at 5 mM after 24 hrs by RP-HPLC; type: physicochemical; details: read-out: Drug degradation
[12] = molecular target: T2, Eukaryotic translation initiation factor 4E (Oryctolagus cuniculus, UniProt P29338); experiment: Inhibition of eIF4E-mediated mRNA translation in rabbit reticulocyte lysate by luciferase reporter gene assay
T2 sequence (P29338 whole entry): as the sequence (P06730 whole entry) above, with T16P, T17A, E174D counted along it

[13] = molecular target: T2, Eukaryotic translation initiation factor 4E; experiment: Inhibition of eIF4E-mediated mRNA translation in rabbit reticulocyte lysate pre-incubated for 60 mins prior to mRNA addition by luciferase reporter gene assay
DcpS = experiment: as §1; type: ADME; details: human, recombinant DcpS; read-out: Drug degradation

Compound	Drug degradation [1]	degraded at 24 h, 5000 µM [2]	Drug degradation [3]	Ka [4]	Ka [5]	Stability [6]	degraded at 24 h, 5000 µM [7]	Ratio (Homo sapiens)	fold change (FC) [8]	Activity (Nucleic Acid)	Drug degradation [9]	Drug degradation [10]	degraded at 24 h, 5000 µM [11]	IC50 [12]	IC50 [13]	metabolised at 1.5 h (DcpS)
CO[C@@H]1[C@H](O)[C@@H](COP(=O)([O-])OP(=O)([O-])NP(=O)([O-])OC[C@H]2O[C@@H](n3cnc4c(=O)[nH]c(N)nc43)[C@H](O)[C@@H]2O)O[C@H]1n1c[n+](C)c2c(=O)[nH]c(N)nc21.[Na+].[Na+]	Not Active	< 10%	Not Active	12.8 µM⁻¹	10.4 µM⁻¹	Stable	< 10%	1.2	1.11	Active	Not Active	Not Active	< 10%			
C[n+]1cn([C@@H]2O[C@H](COP(=O)([O-])OP(=O)([O-])NP(=O)([O-])OC[C@H]3O[C@@H](n4cnc5c(=O)[nH]c(N)nc54)[C@H](O)[C@@H]3O)[C@@H](O)[C@H]2O)c2nc(N)[nH]c(=O)c21.[Na+].[Na+]	Not Active	< 10%	Not Active		10.1 µM⁻¹	Stable	< 10%					Not Active	< 10%	8.49 µM	5.97 µM	20%
